From patent US8741911B2, “Raf inhibitor compounds” (Eli Lilly and Company, priority 2012, dated 2014)
Like-named read-outs stand apart in the source and are kept apart here.

Key:
TALL-1 = assay: CellTiter-Glo proliferation and viability assay; type: cell-based; conditions: Homo sapiens, read-out: Abs IC50
HL-60 = assay: CellTiter-Glo proliferation and viability assay; type: cell-based; conditions: Homo sapiens
BxPC-3 = assay: CellTiter-Glo proliferation and viability assay; type: cell-based; conditions: Homo sapiens
HEL = assay: CellTiter-Glo proliferation and viability assay; type: cell-based; conditions: Homo sapiens, read-out: Abs IC50
[1] = tested on: phospho-MEK and phospho-ERK in A375 cells; assay: Immunoblotting (Western Blot) analysis of phospho-MEK and phospho-ERK; type: cell-based, human
Method: Testing is carried out at doses of 0, and 11 serial dilutions ranging from 0.17 to 10000 nM. Protein lysates are generated by treatment of the cells with RIPA lysis buffer from Millipore. Western blotting analysis is performed substantially as described in Yadav et al, Molecular Carcinogenesis, 2011, 50: 346-52. Briefly, SDS-PAGE is performed on cell lysates containing 20 ug of total protein using 4-20% Novex® tri-glycine gradient gels (Invitrogen). Protein is transferred onto […] nitrocellulose membranes using NuPAGE® Transfer Buffer (Invitrogen) and 10% methanol at 100 V, 4° C. for 1 hr. Generally, the primary antibody is used at 1:1000 dilution, and secondary antibody at 1:20000 dilution. Proteins are detected using the Odyssey Infrared Imaging System (Li-COR Biosciences). Antibodies against ERK1/2, phospho-ERK1/2, phospho-MEK1/2, and actin are obtained from Cell Signaling Technology.
Phospho-ERK activity was substantially eliminated at 41 nM.

Hs746T = assay: CellTiter-Glo proliferation and viability assay; type: cell-based; conditions: Homo sapiens
NCI-H1975 = assay: CellTiter-Glo proliferation and viability assay; type: cell-based; conditions: Homo sapiens
NUGC-3 = assay: CellTiter-Glo proliferation and viability assay; type: cell-based; conditions: Homo sapiens
SNU-449 = assay: CellTiter-Glo proliferation and viability assay; type: cell-based; conditions: Homo sapiens
C8166 = assay: CellTiter-Glo proliferation and viability assay; type: cell-based; conditions: Homo sapiens
A375 cells = assay: CellTiter-Blue A375 cell proliferation assay; type: cell-based; conditions: Homo sapiens, A-375, read-out: Cell Proliferation Inhibition IC50
Method: Collection (ATCC, Manassas, Va.). Briefly, cells are grown in DMEM High Glucose supplemented with 10% characterized fetal bovine serum (Invitrogen, Carlsbad, Calif.) and 1% Penicillin/Streptomycin/L-Glutamine at 37 degrees Celsius, 5% CO2, and 95% humidity. Cells are allowed to expand until reaching 70-95% confluency at which point they are subcultured or harvested for assay use. A serial dilution of test compound is dispensed into a 384-well black clear bottom plate in triplicate. Six hundred twenty-five cells are added per well in 50 μL complete growth medium in the 384-well plate. Plates are incubated for 67 hours at 37 degrees Celsius, 5% CO2, and 95% humidity. At the end of the incubation period, 10 μL of a 440 μM solution of resazurin (Sigma, St. Louis, Mo.) in PBS is added to each well of the plate and plates are incubated for an additional 5 hours at 37 degrees Celsius, 5% CO2, and 95% humidity. Plates are read on a Synergy2 reader (Biotek, Winooski, Vt.) using an excitation of 540 nm and an emission of 600 nm. Data is analyzed using Prism software (Graphpad, San Diego, Calif.) to calculate IC50 values.
The A375, HT-29, and Colo-205 cells (ATCC) harbor a V600E mutation.

U-118-MG = assay: CellTiter-Glo proliferation and viability assay; type: cell-based; conditions: Homo sapiens
HCC70 = assay: CellTiter-Glo proliferation and viability assay; type: cell-based; conditions: Homo sapiens
HT-1080 = assay: CellTiter-Glo proliferation and viability assay; type: cell-based; conditions: Homo sapiens
MDA-MB-436 = assay: CellTiter-Glo proliferation and viability assay; type: cell-based; conditions: Homo sapiens
KATOIII = assay: CellTiter-Glo proliferation and viability assay; type: cell-based; conditions: Homo sapiens, KATO III
LOVO = assay: CellTiter-Glo proliferation and viability assay; type: cell-based; conditions: Homo sapiens
PLC-PRF-5 = assay: CellTiter-Glo proliferation and viability assay; type: cell-based; conditions: Homo sapiens
M059K = assay: CellTiter-Glo proliferation and viability assay; type: cell-based; conditions: Homo sapiens
[2] = tested on: phospho-ERK in WM-266-4 V600E cells; assay: SureFire phospho-ERK AlphaScreen cellular assay; type: cell-based; conditions: Homo sapiens, 1 hour treatment
Method: (§1) A375 V600E, WM-266-4 V600E, HCT-116 K-Ras mutant B-Raf wild type are from ATCC. The cellular activities are assessed by an ELISA assay commercially available from TGR Biosciences to measure the phospho-ERK levels of each cell type.
(§2) The cells in each well are then lysed with 50 μl lysis buffer from TGR Biosciences. The phospho-ERK activities are determined with SureFire phospho-ERK AlphaScreen assay kit from TGR Biosciences per manufacturer's instruction.

[3] = tested on: phospho-ERK in HCT-116 (K-Ras mutant B-Raf wild type) cells; assay: SureFire phospho-ERK AlphaScreen cellular assay; type: cell-based; conditions: Homo sapiens, 1 hour treatment
Method: as §1, §2

[4] = tested on: phospho-ERK in A375 V600E-PLX4032 resistant cells (A375-res); assay: SureFire phospho-ERK AlphaScreen cellular assay; type: cell-based; conditions: Homo sapiens, A-375, 1 hour treatment
Method: as §1, §2

[5] = tested on: phospho-ERK in A375 V600E cells; assay: SureFire phospho-ERK AlphaScreen cellular assay; type: cell-based; conditions: Homo sapiens, A-375, 1 hour treatment
Method: as §1, §2

SK-Mel-28 = assay: CellTiter-Glo proliferation and viability assay; type: cell-based; conditions: Homo sapiens
NCI-H23 = assay: CellTiter-Glo proliferation and viability assay; type: cell-based; conditions: Homo sapiens
NCI-H2170 = assay: CellTiter-Glo proliferation and viability assay; type: cell-based; conditions: Homo sapiens

CNc1ncc2cc(-c3cc(NC(=O)NCCC(C)(C)C)c(F)cc3C)c(C)nc2n1 [Example 1, 1-(3,3-Dimethylbutyl)-3-(2-fluoro-4-methyl-5-(7-methyl-2-(methylamino)pyrido[2,3-d]pyrimidin-6-yl)phenyl)urea]
IC50 (TALL-1): 0.75 nM
IC50 (HL-60; read-out: Abs IC50): 0.2 nM
IC50 (HL-60; read-out: Rel IC50): 0.14 nM
IC50 (BxPC-3; read-out: Abs IC50): 0.39 nM
IC50 (BxPC-3; read-out: Rel IC50): 0.23 nM
IC50 (HEL): > 20 nM
concentration at which phospho-ERK activity was substantially eliminated [1]: 41 nM
phospho-MEK and phospho-ERK activities [1]: inhibited phospho-MEK and phospho-ERK activities
IC50 (Hs746T; read-out: Abs IC50): 0.98 nM
IC50 (Hs746T; read-out: Rel IC50): 0.76 nM
IC50 (NCI-H1975; read-out: Abs IC50): 0.93 nM
IC50 (NCI-H1975; read-out: Rel IC50): 0.69 nM
IC50 (NUGC-3; read-out: Abs IC50): 0.68 nM
IC50 (NUGC-3; read-out: Rel IC50): 0.21 nM
IC50 (SNU-449; read-out: Abs IC50): 1.87 nM
IC50 (SNU-449; read-out: Rel IC50): 2.01 nM
IC50 (C8166; read-out: Abs IC50): 1.09 nM
IC50 (C8166; read-out: Rel IC50): 0.56 nM
IC50 (A375 cells): 9 nM
IC50 (U-118-MG; read-out: Abs IC50): 5.21 nM
IC50 (U-118-MG; read-out: Rel IC50): 0.76 nM
IC50 (HCC70; read-out: Abs IC50): > 20 nM
IC50 (HCC70; read-out: Rel IC50): > 20 nM
IC50 (HT-1080; read-out: Abs IC50): 0.98 nM
IC50 (HT-1080; read-out: Rel IC50): 0.5 nM
IC50 (MDA-MB-436; read-out: Abs IC50): > 20 nM
IC50 (MDA-MB-436; read-out: Rel IC50): 0.26 nM
IC50 (KATOIII; read-out: Abs IC50): 0.33 nM
IC50 (KATOIII; read-out: Rel IC50): 0.33 nM
IC50 (LOVO; read-out: Abs IC50): 0.19 nM
IC50 (LOVO; read-out: Rel IC50): 0.12 nM
IC50 (PLC-PRF-5; read-out: Abs IC50): > 20 nM
IC50 (PLC-PRF-5; read-out: Rel IC50): 11.7 nM
IC50 (M059K; read-out: Abs IC50): 15.1 nM
IC50 (M059K; read-out: Rel IC50): 1.01 nM
IC50 [2]: 4.9 nM
IC50 [3]: 133 nM
IC50 [4]: 9.7 nM
IC50 [5]: 3 nM
IC50 (SK-Mel-28; SK-MEL-28, read-out: Abs IC50): 0.04 nM
IC50 (SK-Mel-28; SK-MEL-28, read-out: Rel IC50): 0.03 nM
IC50 (SK-Mel-28; SK-Mel-28, B-Raf V600E, melanoma, CellTiter-Glo, read-out: IC50): 29 nM
IC50 (NCI-H23; read-out: Abs IC50): 6.27 nM
IC50 (NCI-H23; read-out: Rel IC50): 0.69 nM
IC50 (NCI-H2170; read-out: Abs IC50): 15.1 nM
IC50 (NCI-H2170; read-out: Rel IC50): 19.9 nM
